Here are results for eight compounds from article PMC11894060, “Accelerating discovery of bioactive ligands with pharmacophore-informed generative models” (Nature Communications, 2025).

Molecules are shown by their SMILES. Where two headings read alike, the source gives them in different places.

Data set [1] deals with T1, PLK1 (Homo sapiens, UniProt P53350). Description: PLK1 kinase ADP-Glo assay (in vitro kinase activity). The format is biochemical. Also on record: 2 μl of PLK1 enzyme (15 ng/well). Conditions: for selectivity for PLK1 compared to other Plks (in words): PLK1 vs PLK2/PLK3. The method, then:
(§1) In vitro kinase activity assays were conducted through ADP-Glo assay services provided by Conradbio (Conradbio, China). The protocol for the PLK1 assay is described as follows (protocols for other kinases are very similar). Enzyme, substrate, ATP, and compounds were diluted in a Kinase Buffer composed of 40 mM Tris (pH 7.5), 20 mM MgCl2, 0.1 mg/ml BSA, and 50 μM DTT. In a 384-well low-volume plate, 1 μl of the compound or 5% dimethyl sulfoxide (DMSO), 2 μl of PLK1 enzyme (15 ng/well), and 2 μl of substrate/ATP mix (final concentration: 20 μM ATP, 0.2 μg/μl Casein) were added to each well. The plate was then incubated at 25 °C for 60 min to allow for kinase activity. Following the enzymatic reaction, 5 μl of ADP-Glo^TM Reagent was added to each well, and the plate was incubated at 25 °C for an additional 40 min. Subsequently, 10 μl of Kinase Detection Reagent was added, and the plate was incubated for a final 30 min at 25 °C. Luminescence was recorded with an integration time of 0.5 s.
(§2) IC50 values were calculated using Prism 8 by fitting the following equation:4 Y=Bottom+(Top−Bottom)/(1+10^(logIC50−X)×HillSlope), where X is a log of concentration, Y is a response, and top and bottom are the responses of controls. Each assay was repeated at least three times, and we computed the mean and standard deviation for the values.

For data set [2], the target named is T1, PLK1. Also on record: method as in ExCAPE-DB [85]. Conditions: known PLK1 ligands carrying the core substructures; ref ExCAPE-DB [85]; cited from earlier work.
Data set [3] concerns the target T2, PLK2 (Homo sapiens, UniProt Q9NYY3). Kind of data set: Activity against PLK2 (peer review response). The format is biochemical.
The target of data set [4] is T1, PLK1. Description: In-house enzymatic activity (peer review response). The format is biochemical. Conditions: Onvansertib vs. Volasertib.
The target in data set [5] is T3, PLK3 (Homo sapiens, UniProt Q9H4B4). Description: Activity against PLK3 (peer review response). The format is biochemical. Particulars: source not stated.
A further data set addresses FAK kinase (Homo sapiens, UniProt Q05397). Kind of data set: FAK ADP-Glo kinase assay (selectivity). Particulars: for IC50: ADP-Glo assay, read-out: IC50 against FAK; for selectivity for PLK1 over FAK: FAK IC50 versus PLK1 IC50. The format is biochemical. The procedure: as §1, §2
A general note: ADP-Glo turns the ADP formed in a reaction into a luminescent signal.

In data set [6] the target is T2, PLK2. Description: PLK2 ADP-Glo kinase assay (selectivity). The format is biochemical. Conditions: read-out: IC50 against PLK2. The procedure: as §1, §2
Data set [7] addresses T3, PLK3. Kind of data set: PLK3 ADP-Glo kinase assay (selectivity). The format is biochemical. Conditions: read-out: IC50 against PLK3. The procedure: as §1, §2
Data set [8] in a line: Preliminary in vivo pharmacokinetic experiments in mice.
Another data set concerns HCT116 cell line. Description: CellTiter-Glo cell viability assay on HCT116. The format is cell-based, human. The method, then:
Cell viability assays were conducted through CellTiter-Glo assay services provided by Conradbio (Conradbio, China). The protocol is briefly described as follows. Firstly, when the cell confluence reaches 80%, cells are collected and counted. Subsequently, a cell suspension is diluted, and 80 μl of the suspension is seeded into each well of a 96-well U-bottom plate. The plate is then placed in a 37 °C, 5% CO2 incubator for optimal cell growth. After 24 h of incubation, a 20 μl aliquot of a diluted compound solution is added to specific wells on the plate, 0.5% dimethyl sulfoxide (DMSO) is used as a negative control. Following the compound addition, the plate is returned to the incubator for an additional day. Upon completion of the incubation period, the CellTiter-Glo assay (Promega) is performed according to the manufacturer’s manual. This assay is designed to measure cell viability based on luminescence, providing insights into the impact of the compounds on cellular health. Finally, data calculation is carried out to analyze the results of the CTG assay using Prism 8.
(In general: Cellular ATP, detected with luciferase, serves as a proxy for viable cell number.)

Where [9] appears, read: ADP-Glo assay, mean ± standard deviation, n = 3 replicates, read-out: IC50 against PLK1.
The mark [10] stands for this setting: ADP-Glo assay, read-out: IC50 against PLK1 (bound stated in text).
Where [11] appears, read: IC50 with 90% confidence interval, read-out: 90% CI of IC50 against PLK1.
[12] abbreviates: IC50 with 95% confidence interval, read-out: 95% CI of IC50 against PLK1.
The mark [13] stands for this setting: IC50 with 99% confidence interval, read-out: 99% CI of IC50 against PLK1.

T2 sequence (Q9NYY3 whole entry): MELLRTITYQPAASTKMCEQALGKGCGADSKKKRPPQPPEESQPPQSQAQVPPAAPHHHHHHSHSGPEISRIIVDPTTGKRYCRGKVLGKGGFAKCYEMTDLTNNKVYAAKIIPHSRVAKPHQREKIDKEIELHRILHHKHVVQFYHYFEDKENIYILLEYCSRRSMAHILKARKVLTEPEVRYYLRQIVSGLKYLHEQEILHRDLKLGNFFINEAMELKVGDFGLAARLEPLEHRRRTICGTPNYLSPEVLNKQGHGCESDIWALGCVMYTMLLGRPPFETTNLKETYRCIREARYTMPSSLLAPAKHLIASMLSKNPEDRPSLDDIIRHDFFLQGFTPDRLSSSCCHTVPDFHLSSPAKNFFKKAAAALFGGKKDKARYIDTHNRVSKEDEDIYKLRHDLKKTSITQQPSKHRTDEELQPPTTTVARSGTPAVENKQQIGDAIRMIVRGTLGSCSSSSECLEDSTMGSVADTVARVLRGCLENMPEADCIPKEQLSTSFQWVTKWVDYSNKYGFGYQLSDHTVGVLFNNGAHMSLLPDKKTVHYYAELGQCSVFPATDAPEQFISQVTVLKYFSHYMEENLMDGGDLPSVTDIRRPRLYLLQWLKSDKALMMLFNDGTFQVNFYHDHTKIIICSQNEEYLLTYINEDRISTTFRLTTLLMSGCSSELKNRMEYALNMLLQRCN
T1 sequence (P53350 whole entry): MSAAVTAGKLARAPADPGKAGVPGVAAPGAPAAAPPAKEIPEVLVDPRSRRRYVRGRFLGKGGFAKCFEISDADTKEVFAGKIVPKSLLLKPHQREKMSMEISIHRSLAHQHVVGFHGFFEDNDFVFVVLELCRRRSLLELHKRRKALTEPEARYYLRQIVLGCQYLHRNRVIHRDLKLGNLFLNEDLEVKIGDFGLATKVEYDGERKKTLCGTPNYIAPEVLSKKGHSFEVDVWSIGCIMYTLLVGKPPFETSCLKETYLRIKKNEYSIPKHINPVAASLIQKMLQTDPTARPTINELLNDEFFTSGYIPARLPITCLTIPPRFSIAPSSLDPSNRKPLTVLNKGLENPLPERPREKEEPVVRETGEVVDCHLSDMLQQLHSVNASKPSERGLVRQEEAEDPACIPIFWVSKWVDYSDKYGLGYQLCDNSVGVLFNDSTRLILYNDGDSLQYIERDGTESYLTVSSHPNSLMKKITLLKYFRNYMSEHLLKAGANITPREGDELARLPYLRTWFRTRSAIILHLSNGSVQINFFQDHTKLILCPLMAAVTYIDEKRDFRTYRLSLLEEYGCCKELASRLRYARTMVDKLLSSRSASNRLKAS
Sequence of FAK kinase (Q05397 whole entry): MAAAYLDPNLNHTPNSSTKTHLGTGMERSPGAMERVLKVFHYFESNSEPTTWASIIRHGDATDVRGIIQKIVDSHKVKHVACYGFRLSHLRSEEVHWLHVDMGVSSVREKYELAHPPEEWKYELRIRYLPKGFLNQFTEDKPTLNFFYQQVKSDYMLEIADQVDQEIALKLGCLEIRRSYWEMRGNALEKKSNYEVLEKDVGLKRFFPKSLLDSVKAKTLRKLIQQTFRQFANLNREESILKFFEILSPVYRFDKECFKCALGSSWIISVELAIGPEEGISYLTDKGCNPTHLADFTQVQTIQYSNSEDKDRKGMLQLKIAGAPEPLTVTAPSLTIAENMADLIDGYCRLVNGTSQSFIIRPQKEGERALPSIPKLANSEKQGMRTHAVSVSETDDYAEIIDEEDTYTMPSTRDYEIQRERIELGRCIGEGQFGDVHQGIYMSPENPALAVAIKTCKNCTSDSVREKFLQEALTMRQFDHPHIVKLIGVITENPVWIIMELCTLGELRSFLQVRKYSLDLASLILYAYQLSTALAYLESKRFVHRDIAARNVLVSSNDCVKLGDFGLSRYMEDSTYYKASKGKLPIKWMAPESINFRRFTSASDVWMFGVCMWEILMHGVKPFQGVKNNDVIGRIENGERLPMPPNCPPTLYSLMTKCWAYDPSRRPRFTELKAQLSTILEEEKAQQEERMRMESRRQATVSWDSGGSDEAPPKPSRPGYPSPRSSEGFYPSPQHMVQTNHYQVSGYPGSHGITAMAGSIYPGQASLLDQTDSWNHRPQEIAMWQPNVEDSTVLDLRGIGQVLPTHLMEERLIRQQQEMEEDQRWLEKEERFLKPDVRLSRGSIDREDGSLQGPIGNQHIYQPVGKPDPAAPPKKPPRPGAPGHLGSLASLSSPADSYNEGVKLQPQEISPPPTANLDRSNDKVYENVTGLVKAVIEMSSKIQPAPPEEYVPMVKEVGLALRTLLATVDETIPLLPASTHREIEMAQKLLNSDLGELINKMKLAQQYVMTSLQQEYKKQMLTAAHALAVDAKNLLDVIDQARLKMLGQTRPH
T3 sequence (Q9H4B4 whole entry): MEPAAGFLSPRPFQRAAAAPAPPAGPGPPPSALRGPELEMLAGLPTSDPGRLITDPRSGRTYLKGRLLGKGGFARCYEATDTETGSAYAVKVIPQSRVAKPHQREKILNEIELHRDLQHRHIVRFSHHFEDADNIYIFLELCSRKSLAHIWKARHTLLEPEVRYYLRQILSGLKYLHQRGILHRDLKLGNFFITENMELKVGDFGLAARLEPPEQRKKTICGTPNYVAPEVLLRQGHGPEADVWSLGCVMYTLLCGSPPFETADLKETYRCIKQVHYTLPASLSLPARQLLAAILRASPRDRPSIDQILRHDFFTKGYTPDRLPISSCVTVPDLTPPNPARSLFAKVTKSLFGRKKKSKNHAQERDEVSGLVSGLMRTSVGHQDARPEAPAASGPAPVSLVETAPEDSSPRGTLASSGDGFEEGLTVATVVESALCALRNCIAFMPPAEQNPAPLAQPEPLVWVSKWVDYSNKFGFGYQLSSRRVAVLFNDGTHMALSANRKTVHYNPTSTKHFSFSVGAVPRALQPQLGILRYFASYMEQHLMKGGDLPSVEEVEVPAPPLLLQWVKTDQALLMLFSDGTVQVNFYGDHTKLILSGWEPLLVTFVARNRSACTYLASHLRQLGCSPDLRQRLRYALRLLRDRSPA

With `COc1ccc(N2CCN(C)CC2)cc1Nc1ncc(C)c(Oc2ccccc2-n2ccnn2)n1` [IIP0945], the IC50 is 927 ± 129 nM on PLK1 [1] (setting [9]); under 1000 nM on PLK1 [1] (setting [10]); 928 ± 122 nM on PLK1 [1] (setting [11]); 928 ± 146 nM on PLK1 [1] (setting [12]); 928 ± 192 nM at PLK1 [1] (setting [13]).
Regarding `Cc1cc(Oc2ccc(C#N)cc2)nc(NCc2ccccc2)n1` [PubChem CID 1927680], the pXC50 on PLK1 [2] is on record as 5.6.
Regarding `CC[C@@H]1C(=O)N(C)c2cnc(Nc3ccc(C(=O)N[C@H]4CC[C@H](N5CCN(CC6CC6)CC5)CC4)cc3OC)nc2N1C(C)C` [Volasertib], the “selectivity compared to Onvansertib (in words)” value at PLK2 [3] (PLK1 vs PLK2 and PLK3) was “much worse selectivity”. Besides, the “activity against PLK2 (in words)” value on PLK2 [3] (source not stated) is on record as “low nanomolar”. Moreover, the “enzymatic activity, in-house experiments” value on PLK1 [4] turned out to be 0.30 nM. Further, the “activity against PLK3 (in words)” value on PLK3 [5] is on record as “low nanomolar”.
`COc1ccc(N2CCN(C)CC2)cc1Nc1ncc(C(F)(F)F)c(Oc2cccc3[nH]c(C(N)=O)cc23)n1` [IIP0942]: the IC50 at PLK1 [1] (setting [9]) was 37.6 nM; on PLK1 [1] (setting [10]) it was under 1000 nM; on PLK1 [1] (setting [11]) it was 37.6 ± 3.55 nM; at PLK1 [1] (setting [12]) it was 37.6 ± 4.23 nM; on PLK1 [1] (setting [13]), 37.6 ± 5.56 nM; at FAK kinase, 87.4 nM. Also, the IC50 on PLK2 [6] and on PLK3 [7] was over 1000 nM in each case. Also, the “selectivity for PLK1 compared to other Plks (in words)” value at PLK1 [1] was “excellent”. Also, at FAK kinase, the “selectivity for PLK1 over FAK” value is reported as “over two-fold”.
As for `CCS(=O)(=O)c1ccc2oc(Nc3ccc(C(C)C)cc3)nc2c1` [PubChem CID 2462953], the pXC50 on PLK1 [2] is 5.6.
`COc1ccc(N2CCN(C)CC2)cc1Nc1ncc2ccn(-c3ccccc3-c3nc(C)no3)c2n1` [IIP0944]: the IC50 on PLK1 [1] (setting [9]) is over 10000 nM.
With `COc1ccc(N2CCN(C)CC2)cc1Nc1ncc(C)c(Oc2cccc3cc(C(N)=O)sc23)n1` [IIP0943], the “half-life compared to Onvansertib (in words)” value in [8] was “prolonged half-life”. Further, the “oral bioavailability compared to Onvansertib” value in [8] (ratio to Onvansertib) was “over two-fold”. The IC50 was 5.1 nM at PLK1 [1] (setting [9]); under 1000 nM at PLK1 [1] (setting [10]); 5.06 ± 1.64 nM on PLK1 [1] (setting [11]); 5.06 ± 1.96 nM on PLK1 [1] (setting [12]); 5.06 ± 2.57 nM at PLK1 [1] (setting [13]); 264 nM at FAK kinase. The IC50 at PLK2 [6] is over 1000 nM; at PLK3 [7], over 1000 nM; with HCT116 cell line (Homo sapiens, HCT-116, CellTiter-Glo, mean ± standard deviation, n = 3 replicates, read-out: IC50 of cell proliferation inhibition, HCT116), 220 ± 3 nM. Also, the “selectivity for PLK1 compared to other Plks (in words)” value at PLK1 [1] was “high and excellent”. Moreover, at FAK kinase, the “selectivity for PLK1 over FAK” value is recorded as “over 50 fold”. Further, the “inhibitory activity in HCT116 cell proliferation (in words)” value in the data set with HCT116 cell line (HCT116 cell line) is reported as “submicromolar”.
For `COc1cc2c(cc1Nc1nc(Nc3ccsc3C(N)=O)c3cc[nH]c3n1)N(C(=O)CN(C)C)CCC2` [GSK-2110236A], the pXC50 on PLK1 [2] was 7.6.
